In ChEMBL document CHEMBL4619784, “Exploiting Existing Molecular Scaffolds for Long-Term COVID Treatment” (ACS Med Chem Lett, 2020):

Test system: SARS-CoV
Assay: Antiviral activity against SARS coronavirus Urbani infected in monkey Vero E6 cells assessed as reduction in virus-induced cytopathogenicity incubated for 48 hrs by CellTiter-Glo luminescent cell viability assay
Assay type: functional, organism-based
Settings: Severe acute respiratory syndrome-related coronavirus, Vero C1008, 48 h

**Q.** `Cc1ccc(N)cc1C(=O)N[C@H](C)c1cccc2ccccc12` was tested. Which EC50 did it give?
**A.** Its EC50 is 10 µM.
